Assay: Human HepG2 cell viability assay in 384 well format
Format: toxicity, cell-based
Design: dose 125 nL, time 70.5 hour; cytotoxicity at 70.5 h: concentration not given beside the values
Settings: HepG2 cells, read-out: Inhibition

SMILES	cytotoxicity at 70.5 h [%]
COc1cccc(CN2CC(O)CN(C(=O)C3CCC3)CC2=O)c1OC (stereo unspecified)	-4.14
CC(C)(O)CN1CC(C)(C)CN(C(=O)CCc2ccccc2)CC1=O	-1.35
COCC(O)CN1CC(C)(C)CN(C(=O)CCc2ccccc2)CC1=O (stereo unspecified)	0.943
CCN1CC(C)(C)CN(C(=O)CCc2ccccc2)CC1=O	-5.69
COc1ccccc1C(=O)N1CC(=O)N(CC(C)C)CC(O)C1 (stereo unspecified)	-1.35
O=C1CN(C(=O)C2CCCCC2)CC(O)CN1Cc1ccc(Cl)cc1 (stereo unspecified)	-5.09
CSc1ccc(C(=O)N2CC(=O)N(CC(C)(C)C)CC(O)C2)cc1 (stereo unspecified)	-0.234
CSc1ccc(C(=O)N2CC(=O)N(CC3CC3)CC(O)C2)cc1 (stereo unspecified)	2.74
CSc1ccc(C(=O)N2CC(=O)N(Cc3cccs3)CC(O)C2)cc1 (stereo unspecified)	-6.27
CCOC(=O)N1CCC(OC)c2ccccc2N(C)C(=O)C1 (stereo unspecified)	1.4
COC1CCN(C(=O)C2CCCC2)CC(=O)N(C)c2ccccc21 (stereo unspecified)	22.2
COC1CCN(C(=O)COC(C)=O)CC(=O)N(C)c2ccccc21 (stereo unspecified)	-3.04
CN1CCN2C[C@@H](CO)[C@H](c3ccccc3)[C@H]2C1	-5.05
CNC(=O)[C@@H]1[C@@H](c2ccccc2)CN2CCN(Cc3cccs3)C[C@H]12	0.531
CNC(=O)[C@@H]1[C@@H](c2ccccc2)CN2CCN(Cc3ccco3)C[C@H]12	23.2
CNC(=O)[C@@H]1[C@H]2CN(Cc3ccccn3)CCN2C[C@H]1c1ccccc1	4.19
CNC(=O)[C@@H]1[C@H]2CN(Cc3ccoc3)CCN2C[C@H]1c1ccccc1	-0.196
CC(=O)N1CCN2C[C@H](CO)[C@@H](c3ccccc3)[C@H]2C1	-6.55
COC(=O)N1CC2=CC(C)(C)COc3ccc(OC)c(c32)C1	1.21
COCCOC(=O)N1CC2=CC(C)(C)COc3ccc(OC)c(c32)C1	-1.64
CC(C)(C)OC(=O)N1CC(=O)N(CCc2ccccc2)CC(O)C1 (stereo unspecified)	30.2
COc1cccc(CN2CC(O)CN(C(=O)C3CC3)CC2=O)c1OC (stereo unspecified)	4.25

SMILES	cytotoxicity at 70.5 h [%]
Cc1ccc(CN2CC(O)CN(C(=O)OCC(C)C)CC2=O)cc1 (stereo unspecified)	-4.78
COC1CCN(C(=O)CC2CCCC2)CC(=O)N(C)c2ccccc21 (stereo unspecified)	-0.0141
COC1CN(C(=O)CC(C)(C)C)CCC(=O)N(C)c2ccccc21 (stereo unspecified)	-4.95
O=C(C1CCC1)N1CCC(=O)N(C2CC2)Cc2cc(F)ccc21	1.48
CCN1Cc2ccccc2N(C(=O)C2CCC2)CCC1=O	-5.17
COCCn1ccc2c(C(=O)O)cccc21	-3.92
CC(C)c1cc(C(=O)O)nc2[nH]c(=O)[nH]c(=O)c12	-15.1
O=C(O)CCn1ccc2cc(Br)ccc21	9.71
O=C(O)Cc1cnc(-c2c(Cl)cccc2Cl)s1	-12.9
Cc1ccc2cccc(Oc3nc(C)c(C(=O)O)s3)c2n1	14.9
Cc1nc(NC(C)C)nc2c1CN(Cc1cccs1)CC2	22.9
CC(=O)NCc1noc2c1CN(Cc1cccs1)CC2	-1.08
CCN(CC)c1ccc2ccc(C(=O)NC3CC3)cn12	-0.636
CS(=O)(=O)N1CCO[C@@H]2CCN(C(=O)c3cccs3)CC[C@H]21	1.12
O=C1CCCN1Cc1nnn2c1CN(c1ncccn1)CCC2	-9.38
CC(=O)N1CC2(CCN(C(=O)c3cccc4[nH]ccc34)CC2)C1	-8.74
O=C(N[C@@H]1CN(c2ncccn2)[C@@H]2CCCO[C@@H]21)c1cscn1	20.2
CS(=O)(=O)N1CC(c2nc[nH]n2)c2cc(C(=O)NC3CC3)ccc21 (stereo unspecified)	-3.52
CCc1nc(-c2noc3ccc(C(=O)NCCN(C)C)cc23)co1	-4.76
O=C(N[C@@H]1CN(c2ncc(F)cn2)[C@@H]2COC[C@@H]21)c1cscn1	-13.8
COCCN(C)C(=O)c1ccc2onc(-c3coc(C)n3)c2c1	-16.8
CCOC1CC2(CCN(C(=O)COC)CC2)c2cc(F)ccc21 (stereo unspecified)	1.7

SMILES	cytotoxicity at 70.5 h [%]
CC(C)N1CCC2(CC1)CN(C)C(=O)C[C@H]2C(F)(F)F	-7.67
O=C(c1ccsc1)N1CCC2(CCN2Cc2ccc(F)cc2)C1 (stereo unspecified)	-8.12
CCN1C(=O)CCCC12CCCN(C(=O)c1ccsc1)C2 (stereo unspecified)	1.97
O=C(c1ccc2c(c1)OCO2)N1C[C@H](OCC2CC2)[C@H]2COC[C@H]21	-8.17
N#CCC(=O)NCc1nnc2n1CCN(Cc1nccs1)C2	-4.61
CN1CCC2(CC1)CN(C)C(=O)C[C@@H]2C(F)(F)F	-2.18
CCN(CC)[C@@H]1CN(Cc2ccc(C)o2)[C@@H]2CCCO[C@H]12	-14.1
N#CCC(=O)NCc1nnc2n1CCN(Cc1cccs1)C2	-6.57
O=C(NC1CCC1)C1CCC2(CN(C(=O)c3ccno3)C2)O1 (stereo unspecified)	-14
Cc1ccc(C(=O)N2C[C@H]3CN(Cc4csc(C)n4)C[C@H]3C2)cn1	1.63
Cc1cnc(C(=O)N2C[C@H]3CN(Cc4nccs4)C[C@H]3C2)cn1	-5.82
Cc1cccc(COC[C@H]2CC[C@H]3[C@H](CCN3Cc3ccco3)O2)n1	-4.41
CCCS(=O)(=O)N1CC[C@@H]2[C@@H]1CC(=O)N2Cc1csc(C)n1	-4.88
CCCN(CC)C(=O)c1ncn2c1CN(C)S(=O)(=O)c1ccccc1-2	1.29
O=C1CO[C@@H]2CN(C3CCOCC3)C[C@H]2N1Cc1ccncc1	4.06
O=C1CCCN1Cc1ncn2c1CN(C(=O)NC1CCCC1)CCC2	5.73
NC(Cc1nc(-c2ccccc2)no1)c1ccccc1 (stereo unspecified)	-6.63
CC(C)N(C)C(=O)C1CCC2(CCNCC2)O1 (stereo unspecified)	5.71
CC(=O)N1CCC2(CC1)CN(C)CC[C@H]2C(F)(F)F	-4.42
O=C(N[C@@H]1CN[C@H]2CCCO[C@H]21)c1cccnc1	1.62
CN1CCN(Cc2cn3c(n2)CNCC3)CC1	23.1
Cc1ccc(NC2COC3(CCN(Cc4ccn(C)n4)CC3)C2)nn1 (stereo unspecified)	-7.47

SMILES	cytotoxicity at 70.5 h [%]
Cc1noc([C@]23COC[C@H]2CN(Cc2cc(C)on2)C3)n1	47.3
O=S(=O)(N[C@@H]1CCO[C@]2(CCN(CC3CCOCC3)C2)C1)C1CC1	-8.9
CC(=O)N1CCS(=O)(=O)[C@@H]2CCN(CC(C)C)CC[C@@H]21	-6.52
CCO[C@@H]1CN(S(=O)(=O)c2cn(C)cn2)[C@@H]2CCCO[C@@H]21	-10.2
CCC(=O)N1CCC2(CC1)CC(N1CCOCC1)c1cc(C)ccc12 (stereo unspecified)	-13.5
CC(=O)NCc1nn(C)c2c1CN(Cc1ccsc1)C2	-6.78
Fc1cnc(N2CCCn3c(nnc3Cn3ccnc3)C2)nc1	-4.74
Cn1nc(Cn2cccn2)c2c1CN(Cc1ccsc1)C2	-1.91
Cn1nc(Cn2cccc2)c2c1CN(Cc1ccsc1)C2	-9.77
CCS(=O)(=O)N1CCC2(CC1)CCn1c(-c3cnn(C)c3)cnc12	-13
Cc1ncnc2c1CCN(c1ccccn1)CC2	-14
CCCS(=O)(=O)N1CCC2(CC1)CCn1c(-c3cnn(C)c3)cnc12	-11.3
Cn1cc(-c2cnc3n2CCC32CCN(S(=O)(=O)C3CC3)CC2)cn1	-9.03
O=C(NCC1CC1)c1nc2c(o1)CN(CC1CC1)C2	-6.5
CCN1CCCC12CCN(C(=O)c1ccsc1)CC2	-7.76
CCOCC1CN(C(=O)c2ccncn2)Cc2cnn(C)c21 (stereo unspecified)	-3.18
CCOCC1c2c(cnn2C)CCN1C(=O)c1ccncn1 (stereo unspecified)	-14.6
COCCN1CCO[C@H]2CN(C(=O)c3ccncc3F)C[C@H]21	-9.68
CCN(CC)[C@@H]1CN(C(=O)c2ccc(C#N)cc2)[C@@H]2CCCO[C@H]12	-4.73
CCN(CC)[C@@H]1CN(C(=O)c2ccnnc2)[C@@H]2CCCO[C@H]12	-8.7
O=C(NCC1CN(c2ncccn2)Cc2nccn2C1)c1cccnc1 (stereo unspecified)	-4.53
O=S(=O)(C1CC1)N1C[C@@H]2CN(Cc3cccs3)CCO[C@@H]2C1	11.2

SMILES	cytotoxicity at 70.5 h [%]
CCS(=O)(=O)N1C[C@@H]2CN(Cc3cccs3)CCO[C@@H]2C1	6.04
O=C(Nc1cnccn1)[C@H]1CC[C@@H]2[C@@H](CCN2Cc2ccccn2)O1	-0.71
Cc1oncc1C(=O)N1CCC2(CCN(Cc3cccnc3)C2=O)C1 (stereo unspecified)	-3.48
Cn1ccc(C(=O)NC2CCC23CCN(Cc2cnn(C)c2)CC3)c1 (stereo unspecified)	-1.29
Cc1nc(CN2C(=O)CC[C@@H]3[C@H]2CCN3C2CCOCC2)cs1	-2.88
CC(C)n1nc(CN2CCOCC2)c2c1CN(Cc1ccsc1)C2	-4.8
CC(C)NC(=O)c1ccc2nnc(C3CN(C)CCN3C)n2c1 (stereo unspecified)	-8.09
CN1CCN(C)C(c2nnc3ccc(C(=O)N4CCOCC4)cn23)C1 (stereo unspecified)	-21.5
Cc1ccc(CN2C[C@H](OCCN(C)C)[C@H]3OCCC[C@H]32)o1	3.05
CC(C)N1[C@H](CN2CCCC2)C[C@@H]2CN(C(=O)c3ccoc3)CC[C@@H]21	1.33
CN1CC(=O)N(c2cnn(C)c2)CC12CCN(CC1CC1)C2 (stereo unspecified)	-2.29
c1cncc(O[C@@H]2CC[C@H]3[C@H]2OCCN3C2CCCC2)c1	3.46
Cc1csc(CN2CC[C@H]3O[C@H](C(=O)Nc4cccnc4)CC[C@H]32)n1	8.96
CC(C)CCN1CCc2c(C(=O)N(C)Cc3ccccn3)nn(C)c2C1	-2.57
CC(C)n1nc(CNc2ncccn2)c2c1CN(C)CC2	-6
CN1[C@H](CN2CCCC2)C[C@@H]2CN(Cc3ccoc3)CC[C@@H]21	4.1
Cc1ccsc1CN1C[C@@H]2CN(Cc3cccnc3)CCO[C@@H]2C1	10.4
Cc1nnc(N2CCCC3(CN(Cc4cccnc4)CCO3)C2)o1 (stereo unspecified)	-4.29
